From the NIST ThermoML archive (doi:10.1021/acs.jced.9b00062)
± gives the expanded uncertainty stated by the source.

Legend:
[1] = Molar enthalpy of transition or fusion; conditions: Crystal; DSC

Oc1c(Br)cc(Br)cc1Br [2,4,6-tribromophenol]
Conditions	mass density [kg/m3]
150 K, 101.33 kPa, Crystal, X-ray diffraction	2712 ± 13

Conditions	vapor or sublimation pressure [kPa]
307.16 K, Crystal, Calculated from knudsen effusion weight loss	0.000107 ± 6e-06
309.36 K, Crystal, Calculated from knudsen effusion weight loss	0.000141 ± 8e-06
311.2 K, Crystal, Calculated from knudsen effusion weight loss	0.000177 ± 9e-06
313.15 K, Crystal, Calculated from knudsen effusion weight loss	0.000221 ± 1.2e-05
315.37 K, Crystal, Calculated from knudsen effusion weight loss	0.000286 ± 1.5e-05
317.19 K, Crystal, Calculated from knudsen effusion weight loss	0.000358 ± 1.9e-05
319.15 K, Crystal, Calculated from knudsen effusion weight loss	0.00044 ± 2.4e-05
321.33 K, Crystal, Calculated from knudsen effusion weight loss	0.00057 ± 3e-05
323.2 K, Crystal, Calculated from knudsen effusion weight loss	0.0007 ± 3.7e-05
325.15 K, Crystal, Calculated from knudsen effusion weight loss	0.000857 ± 4.6e-05
327.33 K, Crystal, Calculated from knudsen effusion weight loss	0.0011 ± 9.1e-05
329.21 K, Crystal, Calculated from knudsen effusion weight loss	0.00133 ± 0.00011
336.49 K, Crystal, Closed cell (Static) method	0.00284 ± 0.00016
338.49 K, Crystal, Closed cell (Static) method	0.00343 ± 0.00018
340.48 K, Crystal, Closed cell (Static) method	0.00423 ± 0.0002
342.48 K, Crystal, Closed cell (Static) method	0.00513 ± 0.00023
344.42 K, Crystal, Closed cell (Static) method	0.00612 ± 0.00027
344.43 K, Metastable liquid, Closed cell (Static) method	0.01029 ± 0.00042
346.35 K, Crystal, Closed cell (Static) method	0.00743 ± 0.00031
346.53 K, Metastable liquid, Closed cell (Static) method	0.012 ± 0.00048
348.28 K, Metastable liquid, Closed cell (Static) method	0.01367 ± 0.00053
348.35 K, Crystal, Closed cell (Static) method	0.00894 ± 0.00037
350.35 K, Crystal, Closed cell (Static) method	0.01085 ± 0.00044
350.37 K, Metastable liquid, Closed cell (Static) method	0.01582 ± 0.00056
352.36 K, Metastable liquid, Closed cell (Static) method	0.01813 ± 0.0006
352.41 K, Crystal, Closed cell (Static) method	0.01316 ± 0.00052
354.35 K, Metastable liquid, Closed cell (Static) method	0.02079 ± 0.00064
354.4 K, Crystal, Closed cell (Static) method	0.01584 ± 0.00056
356.31 K, Metastable liquid, Closed cell (Static) method	0.02367 ± 0.00068
358.2 K, Metastable liquid, Closed cell (Static) method	0.02689 ± 0.00073
360.17 K, Metastable liquid, Closed cell (Static) method	0.03085 ± 0.00079
362.2 K, Metastable liquid, Closed cell (Static) method	0.03491 ± 0.00085
364.19 K, Metastable liquid, Closed cell (Static) method	0.04045 ± 0.00094
366.13 K, Metastable liquid, Closed cell (Static) method	0.04605 ± 0.001
368.11 K, Closed cell (Static) method, Liquid	0.05207 ± 0.0011
370.06 K, Closed cell (Static) method, Liquid	0.05865 ± 0.0012
372.03 K, Closed cell (Static) method, Liquid	0.06591 ± 0.0013
374.17 K, Closed cell (Static) method, Liquid	0.07545 ± 0.0015
376.12 K, Closed cell (Static) method, Liquid	0.08537 ± 0.0016
378.03 K, Closed cell (Static) method, Liquid	0.09595 ± 0.0018
380 K, Closed cell (Static) method, Liquid	0.1071 ± 0.002
381.93 K, Closed cell (Static) method, Liquid	0.119 ± 0.0022
383.93 K, Closed cell (Static) method, Liquid	0.1348 ± 0.0021
385.88 K, Closed cell (Static) method, Liquid	0.1513 ± 0.0022
387.86 K, Closed cell (Static) method, Liquid	0.1682 ± 0.0023
389.84 K, Closed cell (Static) method, Liquid	0.1876 ± 0.0025
391.79 K, Closed cell (Static) method, Liquid	0.2094 ± 0.0026
393.77 K, Closed cell (Static) method, Liquid	0.2339 ± 0.0028
395.73 K, Closed cell (Static) method, Liquid	0.259 ± 0.0031
397.68 K, Closed cell (Static) method, Liquid	0.284 ± 0.0033
399.69 K, Closed cell (Static) method, Liquid	0.3164 ± 0.0036
401.66 K, Closed cell (Static) method, Liquid	0.3517 ± 0.0039

Conditions	Normal melting temperature [°C]
Crystal, DTA	92.92 ± 0.39

Conditions	Molar enthalpy of transition or fusion [kcal/mol]
[1]	4.97 ± 0.215
